Reference: ChEMBL document CHEMBL1201862, “PubChem BioAssay data set” (2004)
Values belong to the compound of their own block, whether it stands above or below them. The source made the active and inactive calls.

Legend:
cells [1] = type: functional, cell-based
cells [2] = type: functional, cell-based; remark: listed apart in the source
Insulin-degrading enzyme [3] = target: T1, Insulin-degrading enzyme (Homo sapiens, UniProt P14735); experiment: recombinant IDE activation, cell-free – biochemical, fluorescence polarization, counter-screen for IDE activator project, dose response (AID 588681)
T1 sequence (P14735 whole entry): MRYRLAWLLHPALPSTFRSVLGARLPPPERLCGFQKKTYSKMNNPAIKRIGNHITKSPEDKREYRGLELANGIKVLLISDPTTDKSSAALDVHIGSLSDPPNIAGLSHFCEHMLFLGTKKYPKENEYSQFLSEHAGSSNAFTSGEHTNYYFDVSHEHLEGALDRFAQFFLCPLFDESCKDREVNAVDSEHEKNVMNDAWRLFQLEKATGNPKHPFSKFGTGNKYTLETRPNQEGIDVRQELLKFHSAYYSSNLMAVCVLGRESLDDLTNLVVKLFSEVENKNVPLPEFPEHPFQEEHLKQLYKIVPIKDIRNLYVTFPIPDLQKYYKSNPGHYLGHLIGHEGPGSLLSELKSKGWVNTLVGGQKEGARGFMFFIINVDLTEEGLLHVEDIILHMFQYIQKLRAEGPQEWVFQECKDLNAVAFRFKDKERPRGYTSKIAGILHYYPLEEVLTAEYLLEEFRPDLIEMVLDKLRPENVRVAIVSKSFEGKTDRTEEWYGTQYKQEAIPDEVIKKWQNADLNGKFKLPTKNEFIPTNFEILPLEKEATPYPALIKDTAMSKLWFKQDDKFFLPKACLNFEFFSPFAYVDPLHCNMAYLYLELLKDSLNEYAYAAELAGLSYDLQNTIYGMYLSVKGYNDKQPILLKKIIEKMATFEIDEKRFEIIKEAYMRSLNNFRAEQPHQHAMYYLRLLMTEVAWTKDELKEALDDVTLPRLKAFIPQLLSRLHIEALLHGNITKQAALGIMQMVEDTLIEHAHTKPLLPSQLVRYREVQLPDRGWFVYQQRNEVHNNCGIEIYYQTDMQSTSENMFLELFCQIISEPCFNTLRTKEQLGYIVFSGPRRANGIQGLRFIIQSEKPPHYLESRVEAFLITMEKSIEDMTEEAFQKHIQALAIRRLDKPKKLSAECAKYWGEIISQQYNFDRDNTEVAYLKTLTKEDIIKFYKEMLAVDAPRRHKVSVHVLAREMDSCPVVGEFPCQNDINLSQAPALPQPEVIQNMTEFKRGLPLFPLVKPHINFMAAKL

Insulin-degrading enzyme [4] = target: T1, Insulin-degrading enzyme; experiment: cellular IDE activation of Abeta substrate cleavage – fluorescence polarization, HEK cells, dose response (AID 588439); type: functional, cell-based
HEK293 [5] = experiment: optical interference in Abeta FP readout, dose response, artefact control for IDE activator project, biochemical, fluorescence polarization (AID 588442); type: functional, cell-based; settings: Homo sapiens
HEK293 [6] = experiment: membrane integrity loss in HEK cells – cell-based, fluorescence, cytotoxicity control for IDE activator project, dose response (AID 588440); type: functional; settings: Homo sapiens;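 further: cytotoxicity by LDH release measuring loss of membrane integrity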
NIH3T3 = experiment: NIH-3T3 viability with fluconazole co-treatment – cell-based, Alamar Blue, dry powder, set 2, cytotoxicity control for antifungal resistance reversal project, dose response (AID 488911); type: functional; settings: Mus musculus
[7] = target: T2, Sentrin-specific protease 6 (Homo sapiens, UniProt Q9GZR1); experiment: SAR Analysis of small molecule inhibitors of Sentrin-specific protease 6 (SENP6) using a Luminescent assay. [Related pubchem assays (depositor defined):AID2582, AID2599]; type: functional
T2 sequence (Q9GZR1 whole entry): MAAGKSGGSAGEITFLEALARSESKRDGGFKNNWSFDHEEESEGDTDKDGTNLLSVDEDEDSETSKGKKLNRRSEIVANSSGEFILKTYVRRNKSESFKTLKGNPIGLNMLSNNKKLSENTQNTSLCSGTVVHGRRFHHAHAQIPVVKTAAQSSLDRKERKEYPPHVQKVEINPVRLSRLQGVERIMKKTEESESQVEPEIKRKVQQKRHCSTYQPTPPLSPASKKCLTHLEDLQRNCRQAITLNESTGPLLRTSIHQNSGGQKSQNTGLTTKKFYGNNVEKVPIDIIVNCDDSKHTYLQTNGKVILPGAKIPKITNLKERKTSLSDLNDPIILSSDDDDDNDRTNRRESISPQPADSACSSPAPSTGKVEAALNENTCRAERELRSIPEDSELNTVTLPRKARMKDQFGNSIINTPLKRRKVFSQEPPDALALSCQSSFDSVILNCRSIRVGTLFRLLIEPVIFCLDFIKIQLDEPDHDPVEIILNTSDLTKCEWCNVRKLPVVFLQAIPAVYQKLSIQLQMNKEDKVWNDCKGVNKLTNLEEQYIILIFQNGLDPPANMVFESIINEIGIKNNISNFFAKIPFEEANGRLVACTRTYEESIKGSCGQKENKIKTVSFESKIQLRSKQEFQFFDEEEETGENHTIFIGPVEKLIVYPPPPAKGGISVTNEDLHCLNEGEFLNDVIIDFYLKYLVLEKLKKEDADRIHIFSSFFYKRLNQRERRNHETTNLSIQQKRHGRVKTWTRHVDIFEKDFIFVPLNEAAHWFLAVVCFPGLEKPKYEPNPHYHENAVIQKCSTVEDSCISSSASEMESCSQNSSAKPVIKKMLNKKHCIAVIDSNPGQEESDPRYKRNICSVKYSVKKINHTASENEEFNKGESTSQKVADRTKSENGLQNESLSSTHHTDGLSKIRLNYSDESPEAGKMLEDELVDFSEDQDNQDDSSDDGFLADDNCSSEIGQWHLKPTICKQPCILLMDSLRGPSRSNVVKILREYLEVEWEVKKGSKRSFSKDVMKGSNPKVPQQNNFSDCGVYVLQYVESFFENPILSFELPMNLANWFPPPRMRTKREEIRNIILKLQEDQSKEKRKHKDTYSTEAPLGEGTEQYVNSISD

[8] = target: T3, Sentrin-specific protease 7 (Homo sapiens, UniProt Q9BQF6); experiment: inhibition of human SENP7 cleavage activity – biochemical, luminescence, SAR follow-up (AID 504497); type: functional
T3 sequence (Q9BQF6 whole entry): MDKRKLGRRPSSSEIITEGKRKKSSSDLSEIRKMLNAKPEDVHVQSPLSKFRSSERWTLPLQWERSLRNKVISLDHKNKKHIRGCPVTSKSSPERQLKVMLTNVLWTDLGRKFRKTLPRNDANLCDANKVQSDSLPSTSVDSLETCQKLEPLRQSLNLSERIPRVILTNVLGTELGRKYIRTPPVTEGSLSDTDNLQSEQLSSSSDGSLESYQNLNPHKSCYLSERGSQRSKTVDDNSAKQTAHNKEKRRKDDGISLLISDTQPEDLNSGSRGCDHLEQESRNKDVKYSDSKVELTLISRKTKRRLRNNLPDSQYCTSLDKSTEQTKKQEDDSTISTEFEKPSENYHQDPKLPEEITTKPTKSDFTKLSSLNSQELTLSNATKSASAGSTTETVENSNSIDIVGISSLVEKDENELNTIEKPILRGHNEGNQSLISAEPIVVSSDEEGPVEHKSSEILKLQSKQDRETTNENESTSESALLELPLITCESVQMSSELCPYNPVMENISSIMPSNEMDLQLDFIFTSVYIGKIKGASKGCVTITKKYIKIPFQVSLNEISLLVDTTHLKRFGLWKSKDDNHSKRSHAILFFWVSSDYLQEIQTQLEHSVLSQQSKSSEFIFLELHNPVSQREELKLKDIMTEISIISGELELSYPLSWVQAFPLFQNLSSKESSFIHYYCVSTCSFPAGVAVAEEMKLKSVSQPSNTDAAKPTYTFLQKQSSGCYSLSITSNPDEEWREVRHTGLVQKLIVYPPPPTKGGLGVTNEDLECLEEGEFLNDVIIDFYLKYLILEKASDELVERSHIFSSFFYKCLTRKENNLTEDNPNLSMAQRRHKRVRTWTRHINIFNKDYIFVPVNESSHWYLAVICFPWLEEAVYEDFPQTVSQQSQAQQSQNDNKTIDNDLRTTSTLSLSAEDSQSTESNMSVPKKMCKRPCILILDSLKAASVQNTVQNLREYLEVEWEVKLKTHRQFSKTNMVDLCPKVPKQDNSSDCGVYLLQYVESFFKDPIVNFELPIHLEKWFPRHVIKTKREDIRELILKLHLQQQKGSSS

Caspase-3 = target: T4, Caspase-3 (Homo sapiens, UniProt P42574); experiment: SAR Analysis of small molecule inhibitors of Sentrin-specific proteases (SENPs) using a Caspase-3 Selectivity assay. [Related pubchem assays (depositor defined):AID2540, AID2599, AID434973, AID489001]; type: functional
T4 sequence (P42574 whole entry): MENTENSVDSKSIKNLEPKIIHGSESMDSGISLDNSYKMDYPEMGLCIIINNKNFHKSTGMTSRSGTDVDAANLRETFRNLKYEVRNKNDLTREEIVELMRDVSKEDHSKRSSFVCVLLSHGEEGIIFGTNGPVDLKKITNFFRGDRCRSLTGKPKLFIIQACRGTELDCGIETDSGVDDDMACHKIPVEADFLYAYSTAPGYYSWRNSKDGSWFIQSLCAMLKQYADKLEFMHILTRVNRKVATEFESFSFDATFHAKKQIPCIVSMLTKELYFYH

[9] = target: T5, Sentrin-specific protease 8 (Homo sapiens, UniProt Q96LD8); experiment: inhibition of human SENP8 cleavage activity – biochemical, luminescence, SAR follow-up (AID 504501); type: functional
T5 sequence (Q96LD8 whole entry): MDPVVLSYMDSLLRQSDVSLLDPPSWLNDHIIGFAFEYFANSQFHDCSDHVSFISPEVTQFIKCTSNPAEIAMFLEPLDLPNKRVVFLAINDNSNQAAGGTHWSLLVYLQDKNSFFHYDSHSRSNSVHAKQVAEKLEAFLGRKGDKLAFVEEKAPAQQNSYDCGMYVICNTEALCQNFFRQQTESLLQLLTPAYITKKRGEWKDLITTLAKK

[10] = Trypanosoma cruzi growth suppression in host cells – NIH3T3 host cells, beta-gal luminescence, confirmation (AID 2044); type: functional, cell-based;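 further: intracellular parasites grown in NIH/3T3 mouse fibroblasts as host cells; luminescent beta-galactosidase reporter signal from transgenic T. cruzi replicating inside host cells; inhibitors lower the luminescence signal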
Melanocortin receptor 4 = Melanocortin receptor 4 (Homo sapiens, UniProt P32245); experiment: inhibitors of MC4R cAMP signaling – cell-based, TR-FRET, biased antagonists, dose response (AID 602298); type: functional;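 further: antagonist potency against agonist-stimulated cAMP production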
Chain of Melanocortin receptor 4 (P32245 whole entry): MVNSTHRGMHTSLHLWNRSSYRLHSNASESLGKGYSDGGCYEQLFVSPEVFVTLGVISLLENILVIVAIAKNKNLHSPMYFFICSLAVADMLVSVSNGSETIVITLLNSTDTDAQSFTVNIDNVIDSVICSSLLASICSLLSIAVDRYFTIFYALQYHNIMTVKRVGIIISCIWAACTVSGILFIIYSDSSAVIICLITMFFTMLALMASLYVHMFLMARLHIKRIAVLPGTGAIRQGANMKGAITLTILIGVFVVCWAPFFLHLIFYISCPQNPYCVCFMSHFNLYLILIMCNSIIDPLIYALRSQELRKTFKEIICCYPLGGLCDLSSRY

[11] = NIH3T3 cell viability loss – ATP luminescence, mouse fibroblasts, counter-screen, dose response (AID 2010); type: functional, cell-based;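 further: cells exposed to compound for about 90 hours before reading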
[12] = cAMP pathway inhibition in counterscreen cell line – TR-FRET cAMP detection, counter-screen for MC4R biased antagonist project, dose response (AID 602305); type: functional, cell-based;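 further: U2OS cells stimulated with forskolin near its EC80 as the cAMP inducer; potency is for inhibition of forskolin-stimulated cAMP signaling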
[13] = target: Multidrug resistance protein CDR1 (Candida albicans, UniProt P43071); experiment: inhibition of Nile Red efflux via Candida CDR1 – S. cerevisiae AD1-8u, singleplex, Cherry Pick1 hits, dose response (AID 588606); type: functional
Chain of Multidrug resistance protein CDR1 (P43071 whole entry, looked up): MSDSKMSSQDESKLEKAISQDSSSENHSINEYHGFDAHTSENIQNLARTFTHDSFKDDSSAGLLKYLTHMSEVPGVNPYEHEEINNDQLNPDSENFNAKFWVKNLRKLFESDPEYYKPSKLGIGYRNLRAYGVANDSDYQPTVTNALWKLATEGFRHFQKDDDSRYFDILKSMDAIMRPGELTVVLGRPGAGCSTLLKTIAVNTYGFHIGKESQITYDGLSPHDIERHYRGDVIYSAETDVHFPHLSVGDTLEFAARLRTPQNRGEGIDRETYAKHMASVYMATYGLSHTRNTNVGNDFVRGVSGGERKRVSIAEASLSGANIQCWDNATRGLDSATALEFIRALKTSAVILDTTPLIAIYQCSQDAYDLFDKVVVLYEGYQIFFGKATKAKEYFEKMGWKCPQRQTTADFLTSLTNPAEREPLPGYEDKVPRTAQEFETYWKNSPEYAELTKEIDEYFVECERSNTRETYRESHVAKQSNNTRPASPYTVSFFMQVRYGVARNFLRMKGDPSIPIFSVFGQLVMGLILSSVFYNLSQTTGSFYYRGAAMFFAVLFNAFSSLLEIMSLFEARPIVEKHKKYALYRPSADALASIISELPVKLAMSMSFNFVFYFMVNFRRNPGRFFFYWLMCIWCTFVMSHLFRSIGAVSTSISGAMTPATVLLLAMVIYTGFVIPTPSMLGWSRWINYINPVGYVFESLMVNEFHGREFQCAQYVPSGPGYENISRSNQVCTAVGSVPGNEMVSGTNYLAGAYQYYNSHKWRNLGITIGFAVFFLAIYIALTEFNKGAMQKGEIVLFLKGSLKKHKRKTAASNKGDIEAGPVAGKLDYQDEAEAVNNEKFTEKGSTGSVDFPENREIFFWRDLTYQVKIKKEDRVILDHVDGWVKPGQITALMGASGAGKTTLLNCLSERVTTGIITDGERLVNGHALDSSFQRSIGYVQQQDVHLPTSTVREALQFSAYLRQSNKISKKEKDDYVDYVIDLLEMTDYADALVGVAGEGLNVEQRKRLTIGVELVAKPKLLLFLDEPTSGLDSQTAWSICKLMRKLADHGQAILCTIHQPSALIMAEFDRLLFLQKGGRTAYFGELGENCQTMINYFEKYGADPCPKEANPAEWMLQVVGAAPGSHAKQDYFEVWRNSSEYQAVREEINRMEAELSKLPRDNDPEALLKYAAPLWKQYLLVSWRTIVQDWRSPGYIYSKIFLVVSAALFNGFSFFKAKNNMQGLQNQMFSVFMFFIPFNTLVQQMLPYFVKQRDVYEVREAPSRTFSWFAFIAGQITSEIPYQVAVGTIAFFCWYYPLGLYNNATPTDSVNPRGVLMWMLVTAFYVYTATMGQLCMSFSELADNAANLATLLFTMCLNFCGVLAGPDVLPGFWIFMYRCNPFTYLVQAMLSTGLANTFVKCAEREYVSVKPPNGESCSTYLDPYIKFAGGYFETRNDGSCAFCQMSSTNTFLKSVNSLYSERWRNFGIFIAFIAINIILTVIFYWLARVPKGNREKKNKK

[14] = target: Cyclin-dependent kinase 19 (Homo sapiens, UniProt Q9BWU1); experiment: Navigating the Kinome. Panel member name: CDC2L6; type: functional
Chain of Cyclin-dependent kinase 19 (Q9BWU1 whole entry): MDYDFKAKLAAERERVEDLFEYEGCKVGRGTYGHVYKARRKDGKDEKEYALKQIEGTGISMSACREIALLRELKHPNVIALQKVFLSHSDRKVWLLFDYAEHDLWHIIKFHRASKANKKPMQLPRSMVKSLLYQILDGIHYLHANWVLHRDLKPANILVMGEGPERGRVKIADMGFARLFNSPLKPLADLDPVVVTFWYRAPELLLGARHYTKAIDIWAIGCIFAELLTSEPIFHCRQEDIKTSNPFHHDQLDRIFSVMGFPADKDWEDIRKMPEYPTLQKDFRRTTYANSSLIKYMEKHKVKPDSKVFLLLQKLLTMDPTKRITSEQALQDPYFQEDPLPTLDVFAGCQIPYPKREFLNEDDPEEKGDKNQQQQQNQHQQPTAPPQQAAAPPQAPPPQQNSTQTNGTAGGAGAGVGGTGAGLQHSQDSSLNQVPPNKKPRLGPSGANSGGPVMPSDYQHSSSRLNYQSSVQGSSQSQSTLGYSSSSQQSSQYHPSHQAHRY

[15] = target: Vascular endothelial growth factor receptor 1 (Homo sapiens, UniProt P17948); type: functional;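 further: measured within a kinome-wide profiling panel, FLT1 as the panel member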
Chain of Vascular endothelial growth factor receptor 1 (P17948 whole entry): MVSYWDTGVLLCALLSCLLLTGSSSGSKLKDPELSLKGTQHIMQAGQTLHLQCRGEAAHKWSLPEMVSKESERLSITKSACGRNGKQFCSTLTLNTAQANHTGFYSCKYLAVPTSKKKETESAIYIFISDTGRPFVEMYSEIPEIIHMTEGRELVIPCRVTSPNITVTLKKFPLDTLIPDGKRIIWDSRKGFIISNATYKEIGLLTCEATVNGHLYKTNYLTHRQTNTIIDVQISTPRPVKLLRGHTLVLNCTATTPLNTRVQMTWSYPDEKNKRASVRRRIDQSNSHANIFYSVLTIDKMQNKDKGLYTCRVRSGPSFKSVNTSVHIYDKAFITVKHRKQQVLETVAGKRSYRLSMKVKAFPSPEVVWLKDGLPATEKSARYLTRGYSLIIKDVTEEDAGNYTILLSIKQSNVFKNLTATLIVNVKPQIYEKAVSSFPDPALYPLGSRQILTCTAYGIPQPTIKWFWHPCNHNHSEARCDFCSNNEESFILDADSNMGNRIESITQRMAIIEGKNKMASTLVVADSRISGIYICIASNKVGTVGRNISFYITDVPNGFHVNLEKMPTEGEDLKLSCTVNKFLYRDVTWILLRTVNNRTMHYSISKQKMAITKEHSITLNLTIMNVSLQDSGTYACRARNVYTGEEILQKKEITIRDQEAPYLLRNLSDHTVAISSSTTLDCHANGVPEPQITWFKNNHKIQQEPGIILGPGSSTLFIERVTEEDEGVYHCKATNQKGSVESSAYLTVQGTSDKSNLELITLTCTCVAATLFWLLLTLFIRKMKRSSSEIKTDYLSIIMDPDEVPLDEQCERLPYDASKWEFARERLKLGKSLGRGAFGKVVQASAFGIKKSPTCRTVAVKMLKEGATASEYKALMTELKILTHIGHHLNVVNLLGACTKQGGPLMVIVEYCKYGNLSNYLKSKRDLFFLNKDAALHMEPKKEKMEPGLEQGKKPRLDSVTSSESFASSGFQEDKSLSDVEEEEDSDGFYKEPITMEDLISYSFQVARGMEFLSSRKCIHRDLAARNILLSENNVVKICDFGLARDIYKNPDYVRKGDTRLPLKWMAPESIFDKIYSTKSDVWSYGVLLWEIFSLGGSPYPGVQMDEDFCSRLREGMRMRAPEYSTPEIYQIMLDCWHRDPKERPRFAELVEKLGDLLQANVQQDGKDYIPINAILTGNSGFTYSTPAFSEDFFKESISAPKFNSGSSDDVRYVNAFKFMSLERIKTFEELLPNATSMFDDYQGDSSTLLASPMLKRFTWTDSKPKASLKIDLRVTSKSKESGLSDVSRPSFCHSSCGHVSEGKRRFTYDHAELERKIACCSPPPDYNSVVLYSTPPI

SMILES: COc1ccc(NC(=O)C2CCN(S(=O)(=O)c3ccc4c(c3)CC(C)N4C(C)=O)CC2)cc1OC (stereo not drawn)
EC50 (cells [1]): > 350 µM (not active)
EC50 (cells [2]): > 350 µM (not active)
EC50 (Insulin-degrading enzyme [3]): > 54.7 µM (inactive)
EC50 (Insulin-degrading enzyme [4]): > 54.7 µM (inactive)
EC50 (HEK293 [5]): > 54.7 µM (inactive)
IC50 (HEK293 [6]): > 89.2 µM (inactive)

SMILES: O=C(O)Cn1nc(-c2ccccc2)c2ccccc21
AC50 (NIH3T3): > 260 µM (inactive)

IC50 [7]: 2.05 µM (active)
IC50 [8]: 1.31 µM (active)
IC50 (Caspase-3): 2.88 µM (active)
SMILES: CCC(C)(C)c1ccc2c(c1)C(=O)c1ccccc1C2=O
IC50 [9]: 2.38 µM (active)

SMILES: N#Cc1c(N2CCN(C(=O)c3ccco3)CC2)nc(-c2ccccc2)c2c1CCCC2
EC50 [10]: 2.31 µM (active)
IC50 (Melanocortin receptor 4): > 64.6 µM (inactive)
EC50 [11]: > 60 µM (not active)
IC50 [12]: > 64.6 µM (inactive)

SMILES: CCSc1cc(N2CCOCC2)nc(-c2ccccc2)n1
EC50 [13]: 0.016 µM (active)

Ki [14]: > 100 µM (inactive)
Ki [15]: 0.000251 µM (active)
SMILES: Cc1ccc(F)c(NC(=O)Nc2ccc(-c3coc4c(-c5cccnc5)cnc(N)c34)cc2)c1
